Test results: US10709714B2 (CL BioSciences LLC, priority 2013, dated 2020)
“Also recorded” adds a separate entry of the source. Marks after values point to notes of the source that are not given here.

Tests used:
[1] = tested on: calvarial osteoblasts, hFOB, BMMSCs; experiment: Proliferation (BrdU uptake) of bone-derived cells; assay type: cell-based, mouse, human; settings: pre-incubation
[2] = tested on: calvarial osteoblasts, hFOB, BMMSCs; experiment: Gene expression in bone-derived cells (ALKP, M-CSF, RANKL); assay type: cell-based, mouse, human; settings: YF476 1 nM, preincubation
Experimental: This was reversed by the selective CCK2 receptor antagonist, YF476 (1 nM).

ovariectomized CD-1 mice = experiment: Bone histomorphometry, Model 1 mouse OVX; assay type: in vivo; settings: OVX CD-1 mice; GA single s.c.; 8 weeks
From the text: Patterns of bone mineralization (BM: decreased), resorption cavities (RC: increased) and osteoclasts (stained multinuclear cells (two arrows): increased) were affected by OVX. These effects were reversed by drug treatment. In one aspect, this means that targeting CCK2 receptors normalizes bone morphology irrespective of low estrogen levels.
Gastrin-antagonist treatment reversed these phenomena (FIG. 45).

ovariectomized CD rats [3] = experiment: Bone strength (Instron), Model 2 rat OVX; assay type: in vivo
ovariectomized CD rats [4] = experiment: Bone histomorphometry, Model 2 rat OVX; assay type: in vivo; settings: GA single s.c., 8 weeks
From the text: These effects were reversed by drug treatment. In one aspect, this reflects that targeting CCK2 receptors normalizes bone morphology irrespective of low estrogen levels.
Gastrin-antagonist treatment reversed these phenomena (FIG. 50).

ovariectomized Mastomys [5] = experiment: MicroCT of trabecular and cortical bone, Model 3 Mastomys OVX; assay type: in vivo
ovariectomized Mastomys [6] = experiment: Bone strength (Instron), Model 3 Mastomys OVX; assay type: in vivo
Experimental: Finally, bone strength was examined in Mastomys using an Instron device. Femurs were loaded to failure in four-point bending. Tests were conducted with a deflection rate of 0.05 mm/sec using a servohydraulic testing machine (Instron model 8874; Instron Corp., Norwood, Mass., USA). […] Measurements of bone strength using the Instron device confirmed the utility of the gastrin-antagonist in reversing the OVX-mediated bone phenotype.

ovariectomized Mastomys [7] = experiment: Bone histomorphometry, Model 3 Mastomys OVX; assay type: in vivo; settings: GA single s.c., 8 weeks
From the text: Patterns of bone mineralization (BM: decreased), resorption cavities (RC: increased) and osteoclasts (stained multinuclear cells (two arrows): increased) were affected by OVX. These effects were reversed by drug treatment.
The gastrin-antagonist treatment reversed these phenomena (FIG. 55).

ovariectomized Mastomys [8] = experiment: Circulating blood markers, Model 3 Mastomys OVX; assay type: in vivo
Experimental: CON=control animals, OVX=ovariectomized animals, OVX+GA=gastrin antagonist treated ovariectomized animals. Mean±SEM. *p<0.05 vs. CON, **p<0.05 vs. OVX alone.
Circulating bone biomarkers were also altered by OVX. Specifically, PINP was increased (0.16±0.03 ng/ml vs. 0.13±0.01, p<0.05) as was CTx-1 (0.24±0.17 ng/ml vs. 0.03±0.03, p<0.05) while osteocalcin was elevated (1.6±1.1 ng/ml vs. 0.4±0.16, p<0.05). Treatment with the antagonist attenuated each of these three ovariectomy-mediated alterations.

ovariectomized CD rats [9] = experiment: MicroCT of trabecular and cortical bone, Model 2 rat OVX
From the text: Microcomputed tomography (MicroCT) and bone bending as well as osmium uptake and PCR were used to evaluate bone dynamics and osteoporotic features in the different animal models. MicroCT assesses density and volume of both the trabecular and cortical bones. Measurements of the radius and circumference of the cortical bone can be undertaken. Calculations of the connectivity density, the structural model index (SMI) as well as the stiffness (all measures of structure) of the bone can be made. The polar moment of inertia (pMOI) as well as fracture and workloads identify the underlying bone strength.
Both mice and rats were exposed to the PPI, omeprazole, while the Mastomys were exposed to the H2 Receptor antagonist, loxitidine. GA administration was a single subcutaneous injection at the start of acid inhibition. Pharmacokinetically, this dose ranges between 15-20 nmol over an 8 week period.
Three groups were included for each animal model: a) Group A=placebo/saline treated (no OVX/Controls); b) Group B=OVX+Acid Inhibitory therapy (OVX); and c) Group C=GA treated ovariectomized animals (OVX+GA). At the termination of study (2 months), we evaluated whether the GA reversed the OVX-mediated alterations in bone parameters (microCT, bone strength and histomorphometry as well as circulating markers).
At the start of GA treatment, animals were 98 days (3.2 months) and at study termination, they were 163 days (5.4 months).

[10] = OVX CD rats + omeprazole, GA 50 ug/animal single s.c., 8 weeks
[11] = OVX CD rats, GA-treated vs control
[12] = OVX Mastomys + loxitidine, GA 10 ug/animal single s.c., 8 weeks, cortical bone
[13] = OVX Mastomys + loxitidine, GA 10 ug/animal single s.c., 8 weeks, trabecular bone
[14] = OVX Mastomys + loxitidine, GA 10 ug/animal single s.c., 8 weeks, trabecular bone, listed as GA
[15] = OVX Mastomys + loxitidine, GA 10 ug/animal single s.c., 8 weeks, trabecular bone, listed as Gastrin antagonist
[16] = OVX Mastomys, GA-treated vs control, cortical bone
[17] = OVX Mastomys, GA-treated vs control, trabecular bone
[18] = OVX Mastomys + loxitidine, GA 10 ug/animal single s.c., 8 weeks
[19] = OVX Mastomys, GA-treated vs control
[20] = OVX Mastomys + loxitidine, GA 10 ug/animal single s.c., 8 weeks, listed as GA
[21] = OVX Mastomys + loxitidine, GA 10 ug/animal single s.c., 8 weeks, listed as antagonist
[22] = OVX CD rats + omeprazole, GA 50 ug/animal single s.c., 8 weeks, cortical bone
[23] = OVX CD rats + omeprazole, GA 50 ug/animal single s.c., 8 weeks, trabecular bone
[24] = OVX CD rats + omeprazole, GA 50 ug/animal single s.c., 8 weeks, trabecular bone, listed as GA
[25] = OVX CD rats + omeprazole, GA 50 ug/animal single s.c., 8 weeks, trabecular bone, listed as Gastrin antagonist
[26] = OVX CD rats, GA-treated vs control, cortical bone
[27] = OVX CD rats, GA-treated vs control, trabecular bone

CNc1cccc(NC(=O)N[C@@H]2N=C(c3ccccn3)c3ccccc3N(CC(=O)C(C)(C)C)C2=O)c1 [YF476, netazepide]
effect on gastrin-stimulated proliferation [1]: not inhibited; also recorded: not reversed
effect on gastrin-inhibited gene expression [2]: reversed and normalized
effect on OVX changes in bone mineralization, resorption cavities and TRAP-positive osteoclasts (ovariectomized CD-1 mice): reversed
Fracture Load (ovariectomized CD rats [3]; [10]): 276
Max Load (ovariectomized CD rats [3]; [10]): 282
Stiffness (ovariectomized CD rats [3]; [10]): 565
Total Work (ovariectomized CD rats [3]; [10]): 276
Yield (Stiffness) (ovariectomized CD rats [3]; [10]): 508
% Change Fracture Load (ovariectomized CD rats [3]; [11]): −8%
% Change Max Load (ovariectomized CD rats [3]; [11]): 0%
% Change Stiffness (ovariectomized CD rats [3]; [11]): −2%**
% Change Total Work (ovariectomized CD rats [3]; [11]): 0%
% Change Yield (Stiffness) (ovariectomized CD rats [3]; [11]): −2%**
effect on OVX changes in bone mineralization, resorption cavities and TRAP-positive osteoclasts (ovariectomized CD rats [4]): reversed
BS (ovariectomized Mastomys [5]; [12]): 14.21
BV/TV (ovariectomized Mastomys [5]; [12]): 0.953
Ct. Th (ovariectomized Mastomys [5]; [12]): 0.288
Dens (Apparent Density, cortical) (ovariectomized Mastomys [5]; [12]): 1159
pMOI (ovariectomized Mastomys [5]; [12]): 1.10
BS (ovariectomized Mastomys [5]; [13]): 19.2
BV/TV (ovariectomized Mastomys [5]; [13]): 0.175
Conns-Dens (ovariectomized Mastomys [5]; [13]): 124.1
SMI (ovariectomized Mastomys [5]; [13]): 0.74
Tb. Sp (ovariectomized Mastomys [5]; [13]): 0.457
Dens (Apparent Density, trabecular) (ovariectomized Mastomys [5]; [14]): 187.1
Tb. N (ovariectomized Mastomys [5]; [14]): 2.38
Tb. Th (ovariectomized Mastomys [5]; [14]): 0.086
Dens (Apparent Density, trabecular) (ovariectomized Mastomys [5]; [15]): 187±66
Tb. N (ovariectomized Mastomys [5]; [15]): 2.4±0.6
Tb. Th (ovariectomized Mastomys [5]; [15]): 0.08±0.01
% Change BS (ovariectomized Mastomys [5]; [16]): −1%
% Change BV/TV (ovariectomized Mastomys [5]; [16]): 0%
% Change Ct. Th (ovariectomized Mastomys [5]; [16]): −1%
% Change Dens (Apparent Density, cortical) (ovariectomized Mastomys [5]; [16]): −4%
% Change pMOI (ovariectomized Mastomys [5]; [16]): −4%
% Change BS (ovariectomized Mastomys [5]; [17]): +4%**
% Change BV/TV (ovariectomized Mastomys [5]; [17]): +27%**
% Change Conns-Dens (ovariectomized Mastomys [5]; [17]): +28%
% Change Dens (Apparent Density, trabecular) (ovariectomized Mastomys [5]; [17]): +19%**
% Change SMI (ovariectomized Mastomys [5]; [17]): 0%
% Change Tb. N (ovariectomized Mastomys [5]; [17]): +18%**
% Change Tb. Sp (ovariectomized Mastomys [5]; [17]): −20%**
% Change Tb. Th (ovariectomized Mastomys [5]; [17]): +25%*^; **
Fracture Load (ovariectomized Mastomys [6]; [18]): 42.1
Max Load (ovariectomized Mastomys [6]; [18]): 42.2
Stiffness (ovariectomized Mastomys [6]; [18]): 311
Total Work (ovariectomized Mastomys [6]; [18]): 14.8
Yield (Stiffness) (ovariectomized Mastomys [6]; [18]): 280
% Change Fracture Load (ovariectomized Mastomys [6]; [19]): −25%
% Change Max Load (ovariectomized Mastomys [6]; [19]): −25%
% Change Stiffness (ovariectomized Mastomys [6]; [19]): −6%**
% Change Total Work (ovariectomized Mastomys [6]; [19]): 55%*^,**
% Change Yield (Stiffness) (ovariectomized Mastomys [6]; [19]): −6%**
effect on OVX changes in bone mineralization, resorption cavities and TRAP-positive osteoclasts (ovariectomized Mastomys [7]): reversed
CTX-1 (ovariectomized Mastomys [8]; [18]): 0.1 ng/mL
ESR (circulating estrogen) (ovariectomized Mastomys [8]; [18]): 2.54 pg/mL
Osteocalcin (ovariectomized Mastomys [8]; [18]): 1.13 ng/mL
PINP (ovariectomized Mastomys [8]; [18]): 0.13 ng/mL
Gastrin (circulating) (ovariectomized Mastomys [8]; [20]): 2703 pg/mL
PTH (circulating) (ovariectomized Mastomys [8]; [20]): 151 pg/mL
Gastrin (circulating) (ovariectomized Mastomys [8]; [21]): 2704 ± 430 pg/mL
PTH (circulating) (ovariectomized Mastomys [8]; [21]): 150 ± 37 pg/mL
% Change CTX-1 (ovariectomized Mastomys [8]; [19]): +230%
% Change ESR (ovariectomized Mastomys [8]; [19]): −70%*
% Change Gastrin (ovariectomized Mastomys [8]; [19]): −27%**
% Change Osteocalcin (ovariectomized Mastomys [8]; [19]): +13%
% Change PINP (ovariectomized Mastomys [8]; [19]): 0%*^, **
% Change PTH (ovariectomized Mastomys [8]; [19]): −48%*^, **
BS (ovariectomized CD rats [9]; [22]): 43.3
BV/TV (ovariectomized CD rats [9]; [22]): 0.965
Ct. Th (ovariectomized CD rats [9]; [22]): 0.68
pMOI (ovariectomized CD rats [9]; [22]): 14.03
Dens (Apparent Density, cortical) (ovariectomized CD rats [9]; OVX CD rats + omeprazole, GA 50 ug/animal single s.c., 8 weeks, cortical bone, listed as GA): 1098
Dens (Apparent Density, cortical) (ovariectomized CD rats [9]; OVX CD rats + omeprazole, GA 50 ug/animal single s.c., 8 weeks, cortical bone, listed as Gastrin-antagonist): 1098±24
BS (ovariectomized CD rats [9]; [23]): 154
BV/TV (ovariectomized CD rats [9]; [23]): 0.189
Conns-Dens (ovariectomized CD rats [9]; [23]): 68.58
Tb. N (ovariectomized CD rats [9]; [23]): 2.17
Tb. Sp (ovariectomized CD rats [9]; [23]): 0.48
Tb. Th (ovariectomized CD rats [9]; [23]): 0.09
Dens (Apparent Density, trabecular) (ovariectomized CD rats [9]; [24]): 200.5
SMI (ovariectomized CD rats [9]; [24]): 1.33
Dens (Apparent Density, trabecular) (ovariectomized CD rats [9]; [25]): 204±27
SMI (ovariectomized CD rats [9]; [25]): 1.3±0.17
% Change BS (ovariectomized CD rats [9]; [26]): −13%*
% Change BV/TV (ovariectomized CD rats [9]; [26]): 0%**
% Change Ct. Th (ovariectomized CD rats [9]; [26]): +12%*
% Change Dens (Apparent Density, cortical) (ovariectomized CD rats [9]; [26]): −4%*^,**
% Change pMOI (ovariectomized CD rats [9]; [26]): −22%*
% Change BS (ovariectomized CD rats [9]; [27]): −21%
% Change BV/TV (ovariectomized CD rats [9]; [27]): −30%**
% Change Conns-Dens (ovariectomized CD rats [9]; [27]): +8%
% Change Dens (Apparent Density, trabecular) (ovariectomized CD rats [9]; [27]): −30%*^, **
% Change SMI (ovariectomized CD rats [9]; [27]): +143%*
% Change Tb. N (ovariectomized CD rats [9]; [27]): −18%**
% Change Tb. Sp (ovariectomized CD rats [9]; [27]): +9%**
% Change Tb. Th (ovariectomized CD rats [9]; [27]): −13%**
